# From article PMC4894417, “Quantitative High-Throughput Profiling of Environmental Chemicals and Drugs that Modulate Farnesoid X Receptor” (Scientific Reports, 2014)
# Values joined by “and” are separate entries in the source; they are usually repeats but may differ in a detail not shown here. Equal values may be shown once. “Also recorded” adds a separate entry of the source. Read-outs that look alike come from different tables or passages of the source.
# Tests used:
# FXR-LBD [1] = molecular target: T1, FXR-LBD (Homo sapiens, UniProt Q96RI1); assay: FXR TR-FRET coactivator recruitment assay, agonist mode; assay type: biochemical; settings: Table 1; coactivator SRC2-2 recruitment
# T1 construct: The glutathione S-transferase (GST)-tagged FXR-LBD protein; purchased Life Technologies
# T1 sequence (Q96RI1 262-486 limits assumed): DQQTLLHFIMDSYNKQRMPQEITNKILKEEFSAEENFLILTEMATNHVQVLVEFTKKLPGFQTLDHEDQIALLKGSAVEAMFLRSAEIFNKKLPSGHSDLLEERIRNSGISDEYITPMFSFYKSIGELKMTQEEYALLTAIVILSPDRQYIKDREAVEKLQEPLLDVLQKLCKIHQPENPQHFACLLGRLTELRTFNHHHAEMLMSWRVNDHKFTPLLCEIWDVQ
# FXR-LBD [2] = molecular target: T1, FXR-LBD; assay: FXR TR-FRET coactivator recruitment assay, antagonist mode (50 μM CDCA); assay type: biochemical
# human FXR [3] = molecular target: T2, human FXR (Homo sapiens, UniProt Q96RI1); assay: FXR-bla reporter gene assay, agonist mode (qHTS); settings: for FXR-bla, agonist Efficacy: Table 1, activation as percent of positive control (CDCA 100%), mean ± SD of 3; for FXR agonist activity: FXR-bla assay; for FXR-bla, agonist EC50: Table 1, confirmed compounds, mean ± SD of 3 experiments
# [4] = tested on: FXR-UAS-bla HEK293T cells; assay: Cell viability assay (CellTiter Glo) in the same well as FXR-bla; settings: for Cell viability IC50: Table 1, mean ± SD of 3 experiments
# human FXR [5] = molecular target: T2, human FXR; assay: FXR-bla reporter gene assay, antagonist mode (CDCA-induced transactivation); settings: for FXR antagonist activity: FXR-bla assay; for FXR-bla, antagonist Efficacy: inhibition as percent of positive control (guggulsterone)
# [6] = tested on: FXR-UAS-bla HEK293T cells
# [7] = Cell viability assay (CellTiter Glo) in the same well as FXR-bla; settings: human, FXR-UAS-bla HEK293T cells
# vitamin D receptor (VDR) = vitamin D receptor (VDR) (Homo sapiens, UniProt P11473); assay: VDR-bla reporter gene assay (agonist and antagonist modes)
# [8] = molecular target: peroxisome proliferator-activated receptor gamma (PPARγ) (Homo sapiens, UniProt P37231); assay: PPARγ-bla reporter gene assay (agonist and antagonist modes)
# [9] = Table 1, in the presence of 50 μM CDCA
# [10] = read-out: FXR agonist mode EC50, Table S1, primary screening
# [11] = Table S1, primary screening, CDCA 100%
# [12] = Table S1, primary screening, 50 µM CDCA
# T2 sequence (Q96RI1 with tags, fused parts or gaps limits assumed): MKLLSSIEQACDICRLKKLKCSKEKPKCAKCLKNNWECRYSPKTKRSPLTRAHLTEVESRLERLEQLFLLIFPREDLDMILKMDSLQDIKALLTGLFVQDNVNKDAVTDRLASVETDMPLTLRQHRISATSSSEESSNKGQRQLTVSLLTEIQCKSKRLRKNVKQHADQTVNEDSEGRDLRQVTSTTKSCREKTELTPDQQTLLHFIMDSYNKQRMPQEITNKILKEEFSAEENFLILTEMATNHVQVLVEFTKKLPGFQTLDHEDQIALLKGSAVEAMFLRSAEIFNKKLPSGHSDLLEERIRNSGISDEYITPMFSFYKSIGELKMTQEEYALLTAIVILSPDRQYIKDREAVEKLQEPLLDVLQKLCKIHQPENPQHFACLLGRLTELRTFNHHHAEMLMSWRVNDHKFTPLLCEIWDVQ
# vitamin D receptor (VDR), sequence (P11473 with tags, fused parts or gaps limits assumed): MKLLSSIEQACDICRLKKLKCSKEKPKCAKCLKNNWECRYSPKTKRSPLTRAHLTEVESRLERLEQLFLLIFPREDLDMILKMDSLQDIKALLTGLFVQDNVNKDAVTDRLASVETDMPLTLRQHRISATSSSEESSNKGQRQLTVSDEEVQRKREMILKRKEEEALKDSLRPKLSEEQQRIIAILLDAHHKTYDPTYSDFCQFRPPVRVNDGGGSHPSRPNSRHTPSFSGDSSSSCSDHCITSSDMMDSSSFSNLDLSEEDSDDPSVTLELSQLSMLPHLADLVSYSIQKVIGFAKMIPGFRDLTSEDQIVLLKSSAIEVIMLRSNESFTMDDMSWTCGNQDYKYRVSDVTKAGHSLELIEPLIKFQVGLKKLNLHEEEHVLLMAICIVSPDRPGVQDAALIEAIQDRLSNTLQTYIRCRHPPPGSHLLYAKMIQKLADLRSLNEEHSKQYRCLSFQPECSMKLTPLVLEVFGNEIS
# peroxisome proliferator-activated receptor gamma (PPARγ), sequence (P37231 with tags, fused parts or gaps limits assumed): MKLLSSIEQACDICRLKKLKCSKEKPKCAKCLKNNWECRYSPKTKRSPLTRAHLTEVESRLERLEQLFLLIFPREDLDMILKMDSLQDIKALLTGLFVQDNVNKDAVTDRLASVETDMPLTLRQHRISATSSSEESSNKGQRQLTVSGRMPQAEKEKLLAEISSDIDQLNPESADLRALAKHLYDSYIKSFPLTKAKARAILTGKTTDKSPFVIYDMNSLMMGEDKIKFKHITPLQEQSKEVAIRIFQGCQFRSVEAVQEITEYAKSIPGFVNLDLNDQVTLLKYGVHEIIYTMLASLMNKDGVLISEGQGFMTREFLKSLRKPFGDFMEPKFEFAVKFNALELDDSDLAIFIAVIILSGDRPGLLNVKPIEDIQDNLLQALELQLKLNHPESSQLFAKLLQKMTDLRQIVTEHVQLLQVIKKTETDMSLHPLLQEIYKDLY
molecule,measurement,setting,value
Nc1c2ccccc2nc2ccccc12 [9-Aminoacridine],"FXR TR-FRET, agonist EC50",FXR-LBD [1],unable to induce coactivator recruitment; also recorded: Inactive
same,"FXR TR-FRET, antagonist IC50",FXR-LBD [2]; [9],Inactive
same,EC50,human FXR [3],11.2 ± 2.09 µM
same,"FXR-bla, agonist Efficacy",human FXR [3],152% and 152 ± 22%
same,Cell viability IC50,[4],Inactive
same,"FXR-bla, antagonist IC50","human FXR [5]; Table 1, 50 μM CDCA, mean ± SD of 3 experiments",Inactive
CC1=C(/C=C/C(C)=C/C=C/C(C)=C\C(=O)O)C(C)(C)CCC1 [13-cis Retinoic acid],Cytotoxicity Efficacy,[6],52 ± 44
C/C=C1/C(=O)C[C@H]2[C@@H]3CCC4=CC(=O)CC[C@]4(C)[C@H]3CC[C@]12C [(E)-Guggulsterone],Cytotoxicity IC50,[6],Inactive
C/C=C1\C(=O)C[C@H]2[C@@H]3CCC4=CC(=O)CC[C@]4(C)[C@H]3CC[C@]12C [(Z)-Guggulsterone],Cytotoxicity IC50,[6],Inactive
CC1(C)CCC(C)(C)c2cc(NC(=O)c3ccc(C(=O)O)cc3)ccc21 [AM80],Cytotoxicity IC50,[6],Inactive
same,FXR agonist mode Efficacy,human FXR [3],18 ± 7
same,FXR agonist activity,human FXR [3],selectively induced transactivation of FXR
same,EC50,human FXR [3]; [10],38.9 ± 2.36 µM
same,FXR antagonist mode IC50,human FXR [5],Inactive
CC(C)C[C@H](NC(=O)[C@H](Cc1ccccc1)NC(=O)c1cnccn1)B(O)O [Bortezomib],FXR agonist mode EC50,"human FXR [3]; Table S1, primary screening",Inactive
same,IC50 at 16 h,[7],0.22 ± 0.1 µM
same,Cytotoxicity Efficacy,"[4]; Table S1, primary screening",57 ± 2%
same,IC50,"human FXR [5]; FXR antagonist mode IC50, Table S1, primary screening, 50 µM CDCA",0.44 ± 0.21 µM
same,FXR antagonist activity,human FXR [5]; CDCA-induced,inconclusive antagonists
CC1=C2C[C@H]3[C@@H](CC=C4C[C@@H](O)CC[C@@]43C)[C@@H]2CC[C@]12O[C@@H]1C[C@H](C)CN[C@H]1[C@H]2C [Cyclopamine],"FXR TR-FRET, agonist EC50",FXR-LBD [1],unable to induce coactivator recruitment; also recorded: Inactive
same,"FXR TR-FRET, antagonist IC50",FXR-LBD [2]; [9],Inactive
same,EC50,human FXR [3],10.6 ± 3.13 µM
same,"FXR-bla, agonist Efficacy",human FXR [3],94% and 94 ± 9%
same,IC50,"[4]; Homo sapiens, HEK-293T, read-out: Cell viability IC50",17.6 µM
same,"FXR-bla, antagonist IC50",human FXR [5],Inactive
CC1(C)C(/C=C(\Cl)C(F)(F)F)C1C(=O)OC(C#N)c1cccc(Oc2ccccc2)c1 (stereo not shown) [Cyhalothrin],FXR agonist mode EC50,"human FXR [3]; Table S1, primary screening",Inactive
same,VDR activity,vitamin D receptor (VDR),antagonist activity
same,Cytotoxicity IC50,"[4]; Table S1, primary screening",Inactive
same,FXR antagonist mode Efficacy,human FXR [5],50 ± 15
same,IC50,human FXR [5]; FXR antagonist mode IC50,21.3 ± 13.1 µM
"C[C@H](CCC(=O)O)[C@H]1CC[C@H]2[C@@H]3CC[C@@H]4C[C@H](O)CC[C@]4(C)[C@H]3C[C@H](O)[C@]12C [DCA, Deoxycholic acid]",EC50,human FXR [3],47.3 µM
same,FXR agonist activity,human FXR [3],selectively induced transactivation of FXR
same,FXR agonist mode Efficacy,human FXR [3]; [11],50 ± 12%
same,IC50 at 16 h,[7],66.5 ± 16.1 µM
same,Cytotoxicity Efficacy,"[4]; Table S1, primary screening",73 ± 17%
same,FXR antagonist mode IC50,human FXR [5]; [12],Inactive
O=C1c2ccccc2C(=O)C1C(=O)C(c1ccccc1)c1ccccc1 [Diphacinone],"FXR TR-FRET, agonist EC50",FXR-LBD [1],Inactive
same,"FXR TR-FRET, antagonist IC50",FXR-LBD [2],Inactive
same,"FXR-bla, agonist EC50",human FXR [3],Inactive
same,Cell viability IC50,[4],Inactive
same,IC50,"human FXR [5]; FXR-bla, antagonist IC50",15 µM
OCCN(CCO)c1nc(N2CCCCC2)c2nc(N(CCO)CCO)nc(N3CCCCC3)c2n1 [Dipyridamole],"FXR TR-FRET, agonist EC50",FXR-LBD [1],Inactive
same,"FXR TR-FRET, antagonist IC50",FXR-LBD [2]; [9],Inactive
same,"FXR-bla, agonist EC50",human FXR [3],Inactive
same,Cell viability IC50,[4],Inactive
same,IC50,human FXR [5],3.5 ± 0.4 µM
same,"FXR-bla, antagonist Efficacy","human FXR [5]; Table 1, 50 μM CDCA",81 ± 5%
same,FXR antagonist Efficacy,"human FXR [5]; Table S3, 50 µM CDCA",53 ± 11%
Cn1cc(C2=C(c3cn(C4CCN(Cc5ccccn5)CC4)c4ccccc34)C(=O)NC2=O)c2ccccc21 [Enzastaurin],"FXR TR-FRET, agonist EC50",FXR-LBD [1],Inactive
same,"FXR TR-FRET, antagonist IC50",FXR-LBD [2]; [9],Inactive
same,"FXR-bla, agonist EC50",human FXR [3],Inactive
same,Cell viability IC50,[4],Inactive
same,IC50,human FXR [5],10.2 ± 0.69 µM
same,"FXR-bla, antagonist Efficacy","human FXR [5]; Table 1, 50 μM CDCA",110 ± 9%
CC(C)[C@H](C(=O)OC(C#N)c1cccc(Oc2ccccc2)c1)c1ccc(OC(F)F)cc1 (stereo partly shown) [Flucythrinate],FXR agonist mode EC50,"human FXR [3]; Table S1, primary screening",Inactive
same,VDR activity,vitamin D receptor (VDR),antagonist activity
same,Cytotoxicity IC50,"[4]; Table S1, primary screening",Inactive
same,FXR antagonist mode Efficacy,human FXR [5],37 ± 9
same,IC50,human FXR [5]; FXR antagonist mode IC50,31.4 ± 20.5 µM
O=c1c(-c2ccc(O)cc2)coc2cc(O)cc(O)c12 [Genistein],Cytotoxicity IC50,[6],Inactive
same,FXR agonist mode EC50,"human FXR [3]; Table S1, primary screening",Inactive
same,IC50,human FXR [5]; FXR antagonist mode IC50,22.9 ± 3.16 µM
same,FXR antagonist mode Efficacy,human FXR [5]; [12],57 ± 6%
COCCOC(=O)C1=C(C)NC(C)=C(C(=O)OC(C)C)C1c1cccc([N+](=O)[O-])c1 (stereo not shown) [Nimodipine],Cytotoxicity IC50,[6],Inactive
COC(=O)Nc1nc2ccc(C(=O)c3cccs3)cc2[nH]1 [Nocodazole],"FXR TR-FRET, agonist EC50",FXR-LBD [1],Inactive
same,"FXR TR-FRET, antagonist IC50",FXR-LBD [2],Inactive
same,"FXR-bla, agonist EC50",human FXR [3],Inactive
same,VDR activity,vitamin D receptor (VDR),inhibiting β-lactamase expression
same,PPARγ activity,[8],inhibiting β-lactamase expression
same,Cell viability IC50,[4],Inactive
same,FXR antagonist Efficacy,human FXR [5],54 ± 2%
same,FXR antagonist activity,human FXR [5]; CDCA-induced,inhibiting β-lactamase expression
same,IC50,"human FXR [5]; FXR-bla, antagonist IC50",0.29 µM
same,IC50,"human FXR [5]; IC50, FXR-bla antagonist mode, primary screening, CDCA-induced",0.32 µM
CC(C)=CC1C(C(=O)OCc2cccc(Oc3ccccc3)c2)C1(C)C (stereo not shown) [Phenothrin],FXR agonist mode EC50,"human FXR [3]; Table S1, primary screening",Inactive
same,Cytotoxicity IC50,"[4]; Table S1, primary screening",Inactive
same,FXR antagonist mode Efficacy,human FXR [5],27 ± 7
same,IC50,human FXR [5],25.4 ± 11.8 µM
CO[C@H]1C[C@H](O[C@@H]2/C(C)=C/C[C@@H]3C[C@@H](C[C@]4(CC[C@H](C)[C@@H](C5CCCCC5)O4)O3)OC(=O)[C@@H]3C=C(C)/C(=N/O)[C@H]4OC/C(=C\C=C\[C@@H]2C)[C@]43O)O[C@@H](C)[C@@H]1O [Selamectin],Cytotoxicity IC50,[6],Inactive
same,FXR agonist Efficacy,human FXR [3],68 ± 5%
same,FXR agonist mode Efficacy,human FXR [3],68 ± 5%
same,EC50,human FXR [3]; FXR agonist mode EC50,5.98 ± 0.39 µM
same,FXR antagonist Efficacy,human FXR [5],45 ± 6%
same,FXR antagonist mode Efficacy,human FXR [5],45 ± 6%
same,IC50,human FXR [5]; FXR antagonist mode IC50,2.48 ± 0.82 µM
CC[C@]1(O)C[C@@H]2CN(CCc3c([nH]c4ccccc34)[C@@](C(=O)OC)(c3cc4c(cc3OC)N(C)[C@H]3[C@@](O)(C(=O)OC)[C@H](OC(C)=O)[C@]5(CC)C=CCN6CC[C@]43[C@@H]65)C2)C1 [Vinblastine],"FXR TR-FRET, agonist EC50",FXR-LBD [1],Inactive
same,"FXR TR-FRET, antagonist IC50",FXR-LBD [2]; [9],Inactive
same,"FXR-bla, agonist EC50",human FXR [3],Inactive
same,Cell viability IC50,[4],Inactive
same,IC50,human FXR [5],0.1 ± 0.04 µM
same,"FXR-bla, antagonist Efficacy","human FXR [5]; Table 1, 50 μM CDCA",57 ± 7%
same,FXR antagonist Efficacy,"human FXR [5]; Table S3, 50 µM CDCA",59 ± 2%
AM580,FXR agonist mode Efficacy,human FXR [3],68 ± 37
same,FXR agonist activity,human FXR [3],selectively induced transactivation of FXR
same,EC50,human FXR [3]; [10],45.4 ± 3.07 µM
same,Cytotoxicity IC50,"[4]; Table S1, primary screening",Inactive
same,FXR antagonist mode IC50,human FXR [5],Inactive
Emamectin,FXR agonist mode Efficacy,human FXR [3],56 ± 26%
same,EC50,human FXR [3]; [10],24.6 ± 8.97 µM
same,Cytotoxicity Efficacy,"[4]; Table S1, primary screening",116 ± 14%
same,IC50,"[4]; read-out: Cytotoxicity IC50, Table S1, primary screening",7.54 ± 1.29 µM
same,FXR antagonist mode Efficacy,human FXR [5],64 ± 19%
same,IC50,human FXR [5]; read-out: FXR antagonist mode IC50,5.81 ± 2.68 µM
Eprinomectin B1a,Cytotoxicity Efficacy,[6],108 ± 4%
same,EC50,[6],14 ± 1.6 µM
same,IC50,[6],14 ± 1.6 µM
same,FXR agonist mode Efficacy,human FXR [3]; [11],41 ± 1%
same,FXR agonist Efficacy,human FXR [3]; Table S3,41 ± 1%
same,EC50,human FXR [3]; [10],5.33 ± 0.35 µM
same,FXR antagonist mode Efficacy,human FXR [5]; [12],110 ± 6%
same,FXR antagonist Efficacy,"human FXR [5]; Table S3, 50 µM CDCA",110 ± 6%
same,IC50,"human FXR [5]; read-out: FXR antagonist mode IC50, Table S1, primary screening, 50 µM CDCA",14.5 ± 0.98 µM
